Values quoted from earlier work as cited in patent US20050249799A1, “Polymeric drug delivery system for hydrophobic drugs” (Spherics, Inc., priority 2004, published 2005).
Where two headings read alike, the source gives them in different places.

What was measured:
[1] = not given; remark: listed apart in the source

C#C[C@]1(O)CC[C@H]2[C@@H]3CCC4=Cc5oncc5C[C@]4(C)[C@H]3CC[C@@]21C [Danazol, 17a-Pregna-2,4-dien-20-yno[2,3-d]-isoxazol-17-ol]
half-life (in vivo): 4 to 5 h
increase in plasma concentration on doubling the dose (oral): 30-40%
time to peak plasma concentrations (oral): ≤ 2 h

CCC(C)n1ncn(-c2ccc(N3CCN(c4ccc(OCC5COC(Cn6cncn6)(c6ccc(Cl)cc6Cl)O5)cc4)CC3)cc2)c1=O (centres unmarked) [itraconazole, Itraconazole]
bioavailability (oral capsule): 55%

NC(=O)N1c2ccccc2C=Cc2ccccc21 [Carbamazepine, 5H-dibenz[b,f]azepine-5-carboxamide]
time to peak plasma concentrations (oral): 4 to 24 h
bioavailability (tablet form): 89%
solubility in water [1]: practically insoluble

Nc1nc2c(ncn2COCCO)c(=O)[nH]1 [Acyclovir, 2-amino-1,9-dihydro-9-[(2-hydroxyethoxy)methyl]-6H-purin-6-one]
absolute bioavailability (200 mg dose given every 4 hours): 20%
